The nature of data set [1]: Randomized, double blind, parallel bioavailability study (plasma CBD, THC and metabolites by LCMS). The following applies: human, oral. On the procedure: Dosage was standardized to 10 mg of THC. […] Secondary outcome was a subjective evaluation of drug effects assessed using modified Drug Effects Questionnaire (DEQ-5) for the control product and the experimental product. Relevant experimental descriptions of several study aspects are detailed below.
Administration: A pre-dose plasma (via IV catheter) and a urine sample is collected from the participant before the administration of the emulsions/formulations. […] The bowl in which the product is mixed is rinsed with 100 ml water and the participant consumes the complete amount. After the product mixture is consumed, the participant is provided with an 8 oz glass of water that is then consumed in its entirety within 1-2 minutes.
The samples are also analyzed for HbAlc, CBC, electrolytes (Na, K, Cl, Ca), creatinine, estimated glomerular filtration rate (eGFR), aspartate aminotransferase (AST), alanine aminotransferase (ALT), and bilirubin. Urine samples are also obtained at the following time ranges: 1-4 hrs, 4-8 hrs and 8-12 hrs.
Plasma and urine samples are collected at KGK Science.

For data set [2] the following is noted: cited from earlier work; for time to achieve peak plasma concentration (tmax): different doses; for half-life / systemic bioavailability: humans.

Data on two molecules can be found in patent US20200138772A1, “STABILIZED FORMULATIONS OF CANNABINOID COMPOSITIONS” (priority 2018, published 2020).

SMILES strings stand for the structures. Where two headings read alike, the source gives them in different places. Where only a bound is given, the exact number is not on record here.

For orientation: Tmax means the time at which the peak concentration occurs. By half-life is commonly meant the time in which the quantity being followed falls by half.

As to `C=C(C)[C@@H]1CCC(C)=C[C@H]1c1c(O)cc(CCCCC)cc1O` [CBD, (−)-Cannabidiol (CBD)], the Tmax in data set [1] was in the range of 0.167 to 1.42 h. Further, the “time to achieve peak plasma concentration (tmax)” value in data set [2] is 1.5 to 4 h. Further, the results for the half-life in data set [2] (intravenous injection), in data set [2] (oral administration) and in data set [2] (smoking) were 18 to 33 h, 48 to 120 h and 27 to 35 h, respectively.
As to `CCCCCc1cc(O)c2c(c1)OC(C)(C)[C@@H]1CCC(C)=C[C@@H]21` [Δ^9-THC, Δ^9-Tetrahydrocannabinol (Δ^9-THC)], in data set [1], the Tmax lay in the range of 0.167 to 1.5 h. In data set [2], the “time to achieve peak plasma concentration (tmax)” value was 1 to 2 h. In addition, the systemic bioavailability is given as 4-12% in data set [2] (oral) and 10-27% in data set [2] (smoked). Moreover, the “maximal plasma concentrations observed as late as” value in data set [2] (orally taken, in some cases) is ≤ 6 h.
